Active and inactive are the calls of the source. No cut-off for these calls is given here.
Experiments:
[1] = target: T1, Speckle-type POZ protein-Bromodomain-containing protein 3 (Homo sapiens) (UniProt Q15059+O43791); assay: PROTAC activity at SPOP/BRD3 in human HT-29 cells assessed as induction of BRD3 degradation by measuring fold change at 0.156 uM incubated for 24 hrs by Western blot analysis (reference value: 1.00); type: cell-based
[2] = target: T2, Bromodomain-containing protein 4 (Homo sapiens, UniProt O60885); assay: Inhibition of BRD4 in human HT-29 cells assessed as decrease in c-MYC protein level at 5 uM measured after 2 hrs by Western blot analysis; type: cell-based
[3] = target: T3, Histone-lysine N-methyltransferase EHMT1 (Homo sapiens, UniProt Q9H9B1); assay: Binding affinity to recombinant GLP-SET domain (unknown origin) assessed as assessed as dissociation constant by ITC analysis
T3 sequence (Q9H9B1 whole entry): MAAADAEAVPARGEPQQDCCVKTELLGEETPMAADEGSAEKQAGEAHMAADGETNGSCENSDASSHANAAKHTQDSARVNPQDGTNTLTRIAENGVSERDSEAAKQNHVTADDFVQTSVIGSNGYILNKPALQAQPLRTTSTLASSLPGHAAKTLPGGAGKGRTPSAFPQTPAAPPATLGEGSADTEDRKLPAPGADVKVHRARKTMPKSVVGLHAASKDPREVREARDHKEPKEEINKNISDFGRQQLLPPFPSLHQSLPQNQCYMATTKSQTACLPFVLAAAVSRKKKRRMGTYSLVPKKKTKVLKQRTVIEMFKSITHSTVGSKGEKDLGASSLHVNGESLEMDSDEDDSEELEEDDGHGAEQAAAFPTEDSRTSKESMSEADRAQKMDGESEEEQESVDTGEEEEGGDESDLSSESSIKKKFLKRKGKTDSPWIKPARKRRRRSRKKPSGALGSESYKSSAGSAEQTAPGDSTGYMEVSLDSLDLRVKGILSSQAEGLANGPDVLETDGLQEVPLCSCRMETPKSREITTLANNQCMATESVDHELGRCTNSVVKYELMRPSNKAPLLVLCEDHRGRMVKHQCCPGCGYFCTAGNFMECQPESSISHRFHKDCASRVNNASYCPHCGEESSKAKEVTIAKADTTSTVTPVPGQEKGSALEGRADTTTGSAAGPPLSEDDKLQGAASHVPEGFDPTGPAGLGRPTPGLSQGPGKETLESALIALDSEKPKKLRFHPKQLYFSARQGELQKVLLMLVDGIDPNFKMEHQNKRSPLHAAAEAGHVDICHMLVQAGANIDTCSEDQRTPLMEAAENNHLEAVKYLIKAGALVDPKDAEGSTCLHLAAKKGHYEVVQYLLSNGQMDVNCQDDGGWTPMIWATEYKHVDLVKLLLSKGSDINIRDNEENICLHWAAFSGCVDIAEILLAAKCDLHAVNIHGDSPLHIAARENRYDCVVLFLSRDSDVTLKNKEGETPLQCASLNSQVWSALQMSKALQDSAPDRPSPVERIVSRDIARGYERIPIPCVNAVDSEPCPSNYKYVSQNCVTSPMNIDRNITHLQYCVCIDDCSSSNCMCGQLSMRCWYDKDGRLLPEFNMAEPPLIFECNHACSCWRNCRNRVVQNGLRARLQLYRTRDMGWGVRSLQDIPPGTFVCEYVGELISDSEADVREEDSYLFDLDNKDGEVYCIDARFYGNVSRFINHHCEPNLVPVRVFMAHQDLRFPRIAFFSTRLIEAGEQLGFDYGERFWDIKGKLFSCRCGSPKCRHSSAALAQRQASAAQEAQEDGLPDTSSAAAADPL

[4] = target: T2, Bromodomain-containing protein 4; assay: Inhibition of BRD4 in human HT-29 cells assessed as decrease in c-MYC protein level by measuring fold change at 1.25 uM incubated for 24 hrs by Western blot analysis (reference value: 1.00); type: cell-based
[5] = target: T4, Speckle-type POZ protein-Bromodomain-containing protein 4 (Homo sapiens, UniProt O60885+O43791); assay: PROTAC activity at SPOP/BRD4-S in human HT-29 cells assessed as induction of BRD4 short isoform degradation at 5 uM incubated for 24 hrs by Western blotting analysis relative to control; type: cell-based
T4 sequence (O43791 whole entry, looked up, other chains not shown, canonical isoform): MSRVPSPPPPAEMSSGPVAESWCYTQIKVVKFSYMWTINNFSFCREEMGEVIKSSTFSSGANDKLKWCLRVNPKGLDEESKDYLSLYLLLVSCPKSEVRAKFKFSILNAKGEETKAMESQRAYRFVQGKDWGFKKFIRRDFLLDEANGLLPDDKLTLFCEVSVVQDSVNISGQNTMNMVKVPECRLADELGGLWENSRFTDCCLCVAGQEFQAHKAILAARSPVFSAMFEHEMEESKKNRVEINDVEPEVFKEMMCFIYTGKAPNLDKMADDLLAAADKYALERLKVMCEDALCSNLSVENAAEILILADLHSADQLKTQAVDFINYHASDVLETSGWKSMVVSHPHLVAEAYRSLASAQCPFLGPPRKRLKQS

[6] = target: T4, Speckle-type POZ protein-Bromodomain-containing protein 4; assay: PROTAC activity at SPOP/BRD4-S in human HT-29 cells assessed as induction of BRD4 short isoform degradation by measuring maximal efficacy at 0.156 to 10 uM incubated for 24 hrs by Western blotting analysis relative to control; type: cell-based; settings: dose 0.156-10 µM
[7] = target: Speckle-type POZ protein-Bromodomain-containing protein 2 (Homo sapiens) (UniProt P25440+O43791); assay: PROTAC activity at SPOP/BRD2 in human MDA-MB-231 cells assessed as induction of BRD2 degradation at 0.1 to 5 uM incubated for 24 hrs by Western blot analysis; type: cell-based; settings: dose 0.1-5 µM
Sequence of Speckle-type POZ protein-Bromodomain-containing protein 2 (Homo sapiens) (O43791 whole entry, looked up): as the sequence (O43791 whole entry, looked up, other chains not shown, canonical isoform) above
Sequence of Speckle-type POZ protein-Bromodomain-containing protein 2 (Homo sapiens) (P25440 whole entry, looked up): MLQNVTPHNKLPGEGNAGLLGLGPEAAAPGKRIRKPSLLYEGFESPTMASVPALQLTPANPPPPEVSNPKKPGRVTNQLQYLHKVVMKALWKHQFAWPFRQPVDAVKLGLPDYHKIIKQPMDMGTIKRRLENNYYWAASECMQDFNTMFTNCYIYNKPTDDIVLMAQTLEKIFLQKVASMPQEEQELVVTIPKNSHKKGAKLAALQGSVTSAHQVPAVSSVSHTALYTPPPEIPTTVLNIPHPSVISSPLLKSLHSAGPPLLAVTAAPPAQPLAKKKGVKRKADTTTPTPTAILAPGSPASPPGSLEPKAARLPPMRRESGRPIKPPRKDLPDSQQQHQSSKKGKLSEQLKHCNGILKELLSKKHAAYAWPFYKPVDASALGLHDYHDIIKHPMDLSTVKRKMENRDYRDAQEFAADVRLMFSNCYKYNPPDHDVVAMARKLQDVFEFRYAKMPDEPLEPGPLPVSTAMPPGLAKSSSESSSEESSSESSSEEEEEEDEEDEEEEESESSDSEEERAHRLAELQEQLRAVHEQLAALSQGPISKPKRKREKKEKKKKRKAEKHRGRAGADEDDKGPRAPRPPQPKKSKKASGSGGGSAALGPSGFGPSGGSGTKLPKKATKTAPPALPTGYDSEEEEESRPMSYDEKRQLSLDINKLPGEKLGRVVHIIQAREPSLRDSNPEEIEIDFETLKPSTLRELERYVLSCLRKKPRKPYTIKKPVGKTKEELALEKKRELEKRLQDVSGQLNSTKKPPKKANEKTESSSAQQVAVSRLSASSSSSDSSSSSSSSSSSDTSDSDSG

[8] = target: T1, Speckle-type POZ protein-Bromodomain-containing protein 3 (Homo sapiens); assay: PROTAC activity at SPOP/BRD3 in human HT-29 cells assessed as induction of BRD3 degradation by measuring fold change at 2.5 uM incubated for 24 hrs by Western blot analysis (reference value: 1.00); type: cell-based
[9] = target: T4, Speckle-type POZ protein-Bromodomain-containing protein 4; assay: PROTAC activity at SPOP/BRD4-S in human HT-29 cells assessed as induction of BRD4 short isoform degradation by measuring fold change at 1.25 uM incubated for 24 hrs by Western blotting analysis (reference value: 1.00); type: cell-based
HT-29 = assay: Effect on BRD2 mRNA level in human HT-29 cells at 1 to 10 uM incubated for 24 hrs by RT-qPCR analysis; type: functional, cell-based; settings: dose 1-10 µM
[10] = target: T4, Speckle-type POZ protein-Bromodomain-containing protein 4; assay: PROTAC activity at SPOP/BRD4-L in human HT-29 cells assessed as induction of BRD4 long isoform degradation at 10 uM incubated for 24 hrs by Western blotting analysis relative to control; type: cell-based

T1 sequence (O43791 whole entry, looked up): as the sequence (O43791 whole entry, looked up, other chains not shown, canonical isoform) above
T1 sequence (Q15059 whole entry, looked up): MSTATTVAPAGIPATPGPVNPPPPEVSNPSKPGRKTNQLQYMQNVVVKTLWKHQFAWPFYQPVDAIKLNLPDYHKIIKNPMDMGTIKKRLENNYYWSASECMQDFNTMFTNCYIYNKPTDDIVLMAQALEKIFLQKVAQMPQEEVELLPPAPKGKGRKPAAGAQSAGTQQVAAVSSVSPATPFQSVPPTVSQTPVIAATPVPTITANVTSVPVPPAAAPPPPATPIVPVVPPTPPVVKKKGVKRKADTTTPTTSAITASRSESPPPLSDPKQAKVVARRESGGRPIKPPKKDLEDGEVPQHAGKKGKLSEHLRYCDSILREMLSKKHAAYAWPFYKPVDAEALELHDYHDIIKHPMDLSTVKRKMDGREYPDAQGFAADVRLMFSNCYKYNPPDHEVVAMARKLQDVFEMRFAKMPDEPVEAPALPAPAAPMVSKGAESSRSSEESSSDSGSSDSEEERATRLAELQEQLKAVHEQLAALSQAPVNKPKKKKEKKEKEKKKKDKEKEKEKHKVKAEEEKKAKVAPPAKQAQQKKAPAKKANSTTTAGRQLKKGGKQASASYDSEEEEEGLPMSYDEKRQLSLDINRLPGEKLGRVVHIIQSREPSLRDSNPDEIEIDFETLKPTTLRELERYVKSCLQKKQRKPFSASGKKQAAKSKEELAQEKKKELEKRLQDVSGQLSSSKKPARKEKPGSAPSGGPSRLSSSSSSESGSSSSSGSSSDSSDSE

With COc1cc2c(NC3CCN(CCCC(=O)NCCCCCCCCCCNC(=O)C[C@@H]4N=C(c5ccc(Cl)cc5)c5c(sc(C)c5C)-n5c(C)nnc54)CC3)cc(N3CCOCC3)nc2cc1OCCCN1CCCC1 the fold change (FC) [1] was 1, the inhibition [2] was “Active” and the Kd [3] was 306 nM. For the same compound, the fold change (FC) [4] was 0.4, the Activity [5] was over 50% and the Emax [6] was 63%. The Activity [7] was “Active”, the fold change (FC) [8] was 0.7 and the fold change (FC) [9] was 0.8. The Activity (HT-29) was “inactive” and the Activity [10] was 50%.

Reference: ChEMBL document CHEMBL6109152, “Harnessing the SPOP E3 Ubiquitin Ligase via a Bridged Proteolysis Targeting Chimera (PROTAC) Strategy for Targeted Protein Degradation” (J Med Chem, 2025)
